Test systems include Escherichia coli BL21; Pseudomonas syringae; Klebsiella pneumoniae; Streptococcus pneumoniae; Staphylococcus aureus; Enterobacter cloacae; Citrobacter sp.; Escherichia coli UB1005; Escherichia coli 1005; Candida albicans.
Assay in all cases: ≥ marks a high value that may be exact or a test limit, other limits are often not marked, values filed in µg/mL are converted to µM
The subject of assay [1] is Staphylococcus aureus ATCC 25923.
The test system of assay [2] is Candida albicans NCTC 3179.
Assay [3] deals with Escherichia coli ATCC 25922.
For assay [4], the system named is Xanthomonas axonopodis pv. phaseoli ATCC 9563.
Assay [5] deals with Pseudomonas aeruginosa PAO1.
Assay [6] concerns Streptococcus pyogenes GAS M1T1.
Assay [7] has as its system Acinetobacter baumannii ATCC 15308.
Assay [8] deals with Pseudomonas aeruginosa ATCC 15442.
Assay [9] has as its system Enterococcus faecalis ATCC 29212.
Assay [10] has as its system Pseudomonas aeruginosa ATCC 27853.
Assay [11] relates to Salmonella typhimurium ATCC 7731.
The test system of assay [12] is Salmonella enterica subsp. enterica serovar Pullorum C79-13.
Assay [13] has as its system Staphylococcus aureus ATCC 29213.
For assay [14], the system named is Bacillus subtilis CMCC 63501.
Assay [15] has as its system Staphylococcus aureus ATCC 43300.
Assay [16] has as its system Staphylococcus epidermidis ATCC 12228.
Assay [17] deals with Salmonella enterica subsp. enterica serovar Pullorum ATCC 7913.
Assay [18] concerns Salmonella enterica subsp. enterica serovar Typhimurium ATCC 14028.
The test system of assay [19] is Candida tropicalis CGMCC 2.1975.
Assay [20] deals with Candida parapsilosis CGMCC 2.3989.
Assay [21] deals with Candida krusei CGMCC 2.1857.

Converted amounts (≈) assume the structure as drawn.

A word on the MIC: it is the least concentration at which growth counts as inhibited. Read a low MIC as greater potency. Turning to `CC[C@H](C)[C@H](NC(=O)[C@@H](NC(=O)[C@H](Cc1ccccc1)NC(=O)CNC(=O)[C@@H](NC(=O)[C@H](CC(N)=O)NC(=O)[C@H](C)N)C(C)C)C(C)C)C(=O)N[C@@H](CCC(N)=O)C(=O)N[C@@H](CC(C)C)C(=O)N[C@@H](CCC(N)=O)C(=O)N[C@@H](C)C(=O)N[C@@H](CCCN=C(N)N)C(=O)N[C@@H](CC(C)C)C(=O)N[C@@H](CCCN=C(N)N)C(=O)NCC(=O)N[C@@H](Cc1ccccc1)C(=O)N[C@@H](CC(C)C)C(=O)N[C@H](C(=O)N[C@@H](CCCN=C(N)N)C(=O)N[C@@H](CCC(N)=O)C(=O)N[C@@H](CCCCN)C(=O)N[C@@H](Cc1ccccc1)C(=O)N[C@@H](C)C(=O)O)C(C)C` [ANVGFVIQLQARLRGFLVRQKFA], the MIC in [1] was 1.71 µM (≈ 4.5 µg/mL); in [2] it was at least 95 µM; in [3] it was 1.71 µM (≈ 4.5 µg/mL).
`CC[C@H](C)[C@H](NC(=O)[C@H](CCCCN)NC(=O)[C@H](CC(N)=O)NC(=O)[C@H](CCCCN)NC(=O)[C@H](CC(C)C)NC(=O)[C@H](Cc1ccc(O)cc1)NC(=O)[C@H](CCC(N)=O)NC(=O)[C@H](CCCN=C(N)N)NC(=O)[C@@H](NC(=O)[C@@H](NC(=O)[C@H](CCCCN)NC(=O)[C@H](CCCCN)NC(=O)[C@H](Cc1c[nH]c2ccccc12)NC(=O)[C@H](C)N)[C@@H](C)O)[C@@H](C)CC)C(=O)N[C@@H](CCCCN)C(=O)N[C@@H](CCCCN)C(=O)N[C@@H](CCCCN)C(=O)NCC(=O)N[C@@H](CCCN=C(N)N)C(=O)N[C@@H](CCCCN)C(=O)N[C@@H](C)C(=O)N[C@H](C(=O)N[C@H](C(=O)N[C@@H](C)C(=O)N[C@@H](Cc1c[nH]c2ccccc12)C(=O)O)[C@@H](C)CC)C(C)C` [AWKKTIRQYLKNKIKKKGRKAVIAW]: the minimum inhibitory concentration (MIC) was found to be 8 µM (≈ 24.5 µg/mL) in the assay with Escherichia coli BL21; 1 µM (≈ 3.06 µg/mL) in assay [4]; 10 µM (≈ 30.6 µg/mL) in assay [5]; 8 µM (≈ 24.5 µg/mL) in assay [6]; 8 µM (≈ 24.5 µg/mL) against Pseudomonas syringae.
Consider `CC[C@H](C)[C@H](NC(=O)[C@H](CCCCN)NC(=O)[C@H](CC(N)=O)NC(=O)[C@H](CCCCN)NC(=O)[C@H](CC(C)C)NC(=O)[C@H](Cc1ccc(O)cc1)NC(=O)[C@H](CCC(N)=O)NC(=O)[C@H](CCCN=C(N)N)NC(=O)[C@@H](NC(=O)[C@@H](NC(=O)[C@H](CCCCN)NC(=O)[C@H](CCCCN)NC(=O)[C@H](Cc1c[nH]c2ccccc12)NC(=O)[C@H](C)N)[C@@H](C)O)[C@@H](C)CC)C(=O)N[C@@H](CCCCN)C(=O)N[C@@H](CCCCN)C(=O)N[C@@H](CCCCN)C(=O)N[C@@H](Cc1c[nH]c2ccccc12)C(=O)N[C@@H](CCCN=C(N)N)C(=O)N[C@@H](CCCCN)C(=O)N[C@@H](C)C(=O)N[C@H](C(=O)N[C@H](C(=O)N[C@@H](C)C(=O)N[C@@H](Cc1c[nH]c2ccccc12)C(=O)O)[C@@H](C)CC)C(C)C` [AWKKTIRQYLKNKIKKKWRKAVIAW], for which the minimum inhibitory concentration (MIC) with Escherichia coli BL21 was 4 µM (≈ 12.7 µg/mL); in [4] it was 1 µM (≈ 3.19 µg/mL); in assay [6] it was 8 µM (≈ 25.5 µg/mL); in the assay on Pseudomonas syringae, 8 µM (≈ 25.5 µg/mL).
On to `CC[C@H](C)[C@H](NC(=O)[C@H](CC(C)C)NC(=O)CNC(=O)CNC(=O)[C@H](CC(C)C)NC(=O)[C@@H](N)Cc1ccccc1)C(=O)N[C@@H](CCCCN)C(=O)N[C@@H](Cc1c[nH]c2ccccc12)C(=O)N[C@@H](CCCCN)C(=O)N[C@@H](Cc1c[nH]c2ccccc12)C(=O)N1CCC[C@H]1C(=O)N[C@@H](Cc1c[nH]c2ccccc12)C(=O)N[C@@H](Cc1c[nH]c2ccccc12)C(=O)N1CCC[C@H]1C(=O)N[C@@H](Cc1c[nH]c2ccccc12)C(=O)N[C@@H](CCCN=C(N)N)C(=O)N[C@@H](CCCN=C(N)N)C(N)=O` [FLGGLIKWKWPWWPWRR], for which the MIC is over 108 µM against Klebsiella pneumoniae; 3.38 µM (≈ 7.81 µg/mL) with Streptococcus pneumoniae; 3.38 µM (≈ 7.81 µg/mL) against Staphylococcus aureus; 3.38 µM (≈ 7.81 µg/mL) in assay [1]; 13.5 µM (≈ 31.2 µg/mL) in [7]; at least 108 µM in the assay on Enterobacter cloacae. The minimal inhibitory concentration (MIC) against Citrobacter sp. is at least 108 µM; in [8] it was 13.5 µM (≈ 31.2 µg/mL); in assay [3], 3.38 µM (≈ 7.81 µg/mL).
For the molecule `CC[C@H](C)[C@H](N)C(=O)N[C@@H](Cc1cnc[nH]1)C(=O)N[C@@H](CCCCN)C(=O)N[C@@H](Cc1ccccc1)C(=O)N[C@@H](Cc1c[nH]c2ccccc12)C(=O)N[C@@H](CCCN=C(N)N)C(=O)N[C@@H](CCCN=C(N)N)C(=O)N[C@@H](Cc1c[nH]c2ccccc12)C(=O)N[C@@H](Cc1ccccc1)C(=O)N[C@@H](CCCCN)C(=O)N[C@@H](Cc1cnc[nH]1)C(=O)N[C@H](C(N)=O)[C@@H](C)CC` [IHKFWRRWFKHI], the minimal inhibitory concentration (MIC) in assay [9] is 16 µM (≈ 28.1 µg/mL); in assay [10], 16 µM (≈ 28.1 µg/mL); in [11], 16 µM (≈ 28.1 µg/mL); in [12] it was 16 µM (≈ 28.1 µg/mL); in assay [13] it was 8 µM (≈ 14 µg/mL); in [14], at least 32 µM. Further, the MIC in assay [15] was found to be 16 µM (≈ 28.1 µg/mL); against Escherichia coli UB1005, 8 µM (≈ 14 µg/mL); in [3], 16 µM (≈ 28.1 µg/mL); in assay [16], 16 µM (≈ 28.1 µg/mL).
Consider `CC[C@H](C)[C@H](NC(=O)[C@H](CCCCN)NC(=O)[C@@H](NC(=O)[C@@H](NC(=O)[C@H](CO)NC(=O)[C@H](CC(N)=O)NC(=O)[C@@H](NC(=O)[C@H](CC(N)=O)NC(=O)[C@@H](N)CCCCN)C(C)C)[C@@H](C)CC)C(C)C)C(=O)N[C@@H](CCC(N)=O)C(=O)N[C@@H](C)C(=O)N[C@@H](Cc1ccccc1)C(=O)N[C@@H](Cc1ccccc1)C(=O)N[C@@H](CCCN=C(N)N)C(=O)N[C@@H](C)C(=O)N[C@@H](CCCN=C(N)N)C(=O)N[C@@H](CCCCN)C(=O)N[C@@H](C)C(=O)N[C@@H](CCC(N)=O)C(=O)N[C@@H](CC(=O)O)C(=O)N[C@@H](CC(=O)O)C(=O)N[C@@H](Cc1ccc(O)cc1)C(=O)N[C@@H](CCCN=C(N)N)C(=O)O` [KNVNSIVKIQAFFRARKAQDDYR], for which the MIC worked out at 4.7 µM (≈ 13 µg/mL) in assay [1], 30.3 µM (≈ 84 µg/mL) in assay [2] and 3.54 µM (≈ 9.8 µg/mL) in [3].
For the molecule `NC(=O)[C@H](CCCN=C(N)N)NC(=O)[C@H](Cc1ccccc1)NC(=O)[C@H](Cc1ccccc1)NC(=O)[C@H](CCCN=C(N)N)NC(=O)[C@H](CCCN=C(N)N)NC(=O)[C@H](Cc1ccccc1)NC(=O)[C@H](CCCN=C(N)N)NC(=O)[C@H](CCCN=C(N)N)NC(=O)[C@H](Cc1ccccc1)NC(=O)[C@H](Cc1ccccc1)NC(=O)[C@@H](N)CCCN=C(N)N` [RFFRRFRRFFR], the minimum inhibitory concentration (MIC) came to 4 µM (≈ 6.76 µg/mL) in [17]; 4 µM (≈ 6.76 µg/mL) in [18]; 2 µM (≈ 3.38 µg/mL) in assay [19]; 4 µM (≈ 6.76 µg/mL) in assay [1]; 8 µM (≈ 13.5 µg/mL) with Escherichia coli 1005; 5.66 µM (≈ 9.56 µg/mL) against Candida albicans. For the same molecule, the MIC was at least 64 µM in assay [20]; 8 µM (≈ 13.5 µg/mL) in assay [13]; 4 µM (≈ 6.76 µg/mL) in assay [15]; 2 µM (≈ 3.38 µg/mL) in assay [21]; 4 µM (≈ 6.76 µg/mL) in [16].

The record behind these values is DBAASP.
